Data from paper PMC11544891, “Uncovering the Potential Somatic Angiotensin-Converting Enzyme (sACE) Inhibitory Capacity of Peptides from Acheta domesticus: Insights from In Vitro Gastrointestinal Digestion” (Foods, 2024).
Several values for one entry are separate records, joined by “and”; a condition that tells them apart may be missing. Equal values may be shown once. Read-outs that look alike come from different tables or passages of the source. Residues, ends and D or L forms follow the SMILES beside them. No end group written: not given here.

Experiments:
sACE = settings: cited from earlier work
thoracic aortic rings = system: thoracic aortic rings; set-up: method as in earlier work; settings: Table S2; ref [19] of supplement; cited from earlier work
[1] = system: spontaneously hypertensive rats (SHR); settings: cited from earlier work; for anti-hypertensive activity in SHR: Table S2, ref [19] of supplement
[2] = target: T1, somatic angiotensin-converting enzyme (sACE) (Oryctolagus cuniculus, UniProt P12822); assay: sACE-inhibition fluorimetric assay (o-Abz-Gly-p-Phe(NO2)-Pro-OH substrate); type: biochemical, rabbit; settings: synthetic peptides; mean ± SD, n = 3; read-out: ACE-Inhibitory Capacity Expressed as IC50 (converted)
T1 construct: the ACE working solution was prepared according to Murray et al. [28] using rabbit lung; from tissue; host or cells: rabbit lung
T1 sequence (P12822 34-1310): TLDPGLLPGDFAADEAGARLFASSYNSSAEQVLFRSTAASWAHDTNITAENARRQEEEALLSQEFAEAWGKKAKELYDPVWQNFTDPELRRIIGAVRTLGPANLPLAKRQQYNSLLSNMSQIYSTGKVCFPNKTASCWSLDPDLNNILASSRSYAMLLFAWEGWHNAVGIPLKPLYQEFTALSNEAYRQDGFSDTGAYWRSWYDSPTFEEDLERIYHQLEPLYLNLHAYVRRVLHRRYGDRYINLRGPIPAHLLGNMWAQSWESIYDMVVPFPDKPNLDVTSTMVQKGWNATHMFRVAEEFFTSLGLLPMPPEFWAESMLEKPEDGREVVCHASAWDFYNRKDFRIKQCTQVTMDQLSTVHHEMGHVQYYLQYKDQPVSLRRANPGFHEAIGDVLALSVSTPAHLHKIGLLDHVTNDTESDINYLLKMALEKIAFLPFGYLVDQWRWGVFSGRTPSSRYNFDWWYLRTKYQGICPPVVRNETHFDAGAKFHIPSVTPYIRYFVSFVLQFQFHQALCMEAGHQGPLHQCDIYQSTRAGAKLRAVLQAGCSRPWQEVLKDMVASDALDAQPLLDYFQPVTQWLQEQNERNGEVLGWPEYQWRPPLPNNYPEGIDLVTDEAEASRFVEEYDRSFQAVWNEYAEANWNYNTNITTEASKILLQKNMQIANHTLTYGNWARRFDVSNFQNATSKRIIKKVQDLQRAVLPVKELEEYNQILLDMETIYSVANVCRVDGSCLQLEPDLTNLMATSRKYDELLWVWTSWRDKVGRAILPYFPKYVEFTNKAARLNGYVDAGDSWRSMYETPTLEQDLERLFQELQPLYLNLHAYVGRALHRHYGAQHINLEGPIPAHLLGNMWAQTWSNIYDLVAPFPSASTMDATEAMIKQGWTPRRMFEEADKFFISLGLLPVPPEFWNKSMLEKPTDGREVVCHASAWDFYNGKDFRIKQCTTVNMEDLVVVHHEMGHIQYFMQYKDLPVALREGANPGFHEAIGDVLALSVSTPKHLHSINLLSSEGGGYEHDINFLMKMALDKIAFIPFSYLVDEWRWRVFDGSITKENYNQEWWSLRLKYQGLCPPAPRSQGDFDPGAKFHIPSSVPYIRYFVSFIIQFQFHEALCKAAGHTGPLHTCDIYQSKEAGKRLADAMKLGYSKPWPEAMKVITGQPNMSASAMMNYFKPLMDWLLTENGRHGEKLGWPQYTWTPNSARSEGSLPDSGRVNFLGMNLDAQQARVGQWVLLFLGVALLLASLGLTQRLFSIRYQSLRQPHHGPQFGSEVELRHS
Experimental: The sACE-inhibitory capacity was determined using a fluorimetric assay, as reported by Tavares et al., with some modifications. Briefly, the ACE working solution was prepared according to Murray et al. using rabbit lung posteriorly diluted in 0.15 M Tris-base buffer (pH 8.3) with 0.1 mM ZnCl2. A total of 40 µL of the working solution was added to each 96-well microplate well (Porvair, Norfolk, UK), then adjusted to 80 µL by adding distilled water to the blank (B), control (C), or samples (S). The enzyme reaction was started by adding 160 µL of 0.45 mM o-Abz-Gly-p-Phe(NO2)-Pro-OH dissolved in 0.15 M Tris-base buffer (pH 8.3) containing 1.125 M NaCl, and the mixture was incubated at 37 °C for 30 min. The fluorescence generated was measured using a multiscan microplate fluorimeter (FLUOstar optima, BMG Labtech, Ortenberg, Germany) with excitation and emission wavelengths of 350 and 420 nm, respectively. Data were processed with the software FLUOstar control (version 1.32 R2, BMG Labtech, Ortenberg, Germany). The assay was performed in triplicate, and the resulting data were subjected to a nonlinear fit using GraphPad Prism 5 to determine the IC50 (half maximal inhibitory concentration) values. The resulting data (n = 3) were expressed as the mean ± SD (standard deviation).

[3] = Table S2, peptides from in vitro digestion (pepsin, pancreatin) of edible insects, ref [14] of supplement
[4] = Table S2, ref [17] of supplement, read-out: In Vitro (IC50)
[5] = Table S2, ref [3] of supplement, read-out: In Vitro (IC50)
[6] = peptides found in fermented milks, read-out: IC50 values for sACE
[7] = Table S2, T. molitor larvae, ref [21] of supplement, read-out: In Vitro (IC50)

Molecule: FDPFPK (LCFDPFPK) [literature peptide from Schistocerca gregaria digestion]
- In Vitro (IC50) (sACE; [3]): 79.25 ± 0.04 µg/mL

Molecule: KVEGDLK [literature peptide from Gryllodes sigillatu digestion]
- IC50 (sACE): 3.67 µg/mL

Molecule: GAMVVH
- IC50 (sACE; Table S2, ref [7] of supplement, read-out: In Vitro (IC50)): 19.4 ± 0.21 µM

Molecule: KHV
- IC50 (sACE; Table S2, ref [8] of supplement, read-out: In Vitro (IC50)): 12.8 µM

Molecule: Ala-Val-Phe [AVF]
- IC50 (sACE; Table S2, ref [18] of supplement, read-out: In Vitro (IC50)): 2120 µM
- IC50 (sACE; Table S2, synthesized peptides, ref [19] of supplement, read-out: In Vitro (IC50)): 1370 to 1430 µM
- inhibitory activity in thoracic aortic rings from male Wistar rats (thoracic aortic rings): no inhibitory activity
- anti-hypertensive activity in SHR [1]: anti-hypertensive activity

Molecule: RYL
- IC50 (sACE; peptide from Bombyx mori hydrolysates, read-out: IC50): 3.31 µM

Molecule: AAAPVAVAK [literature peptide from Tenebrio molitor larvae digestion]
- IC50 (sACE): 8.31 µg/mL

Molecule: IIIGW [IIIGW]
- IC50 [2]: 54.6 µM and 54.5 µM

Molecule: Val-Phe [VF]
- IC50 (sACE; Table S2, […], ref [19] of supplement, read-out: In Vitro (IC50)): 120 to 144 µM
- inhibitory activity in thoracic aortic rings from male Wistar rats (thoracic aortic rings): inhibitory activity
- anti-hypertensive activity in SHR [1]: anti-hypertensive activity
- in vivo antihypertensive capacity [1]: demonstrated in vivo antihypertensive capacity

Molecule: AVFPSIVGR [literature peptide from Apis mellifera pupae hydrolysate]
- IC50 (sACE; read-out: IC50): 6.64 µM

Molecule: AGDDAPR [literature peptide from Tenebrio molitor protein concentrate digestion]
- IC50 (sACE): 8.34 µg/mL

Molecule: PIVCF [PIVCF]
- IC50 [2]: 4.64 µM and 4.63 µM

Molecule: LSRVP
- IC50 (sACE; [4]): 52.7 ± 4.04 µM

Molecule: APPPKK
- In Vitro (IC50) (sACE; Table S2, ref [9] of supplement): 47 µg/mL

Molecule: NYVADGLG [literature peptide from Tenebrio molitor larvae digestion]
- In Vitro (IC50) (sACE; [3]): 12.09 ± 0.08 µg/mL

Molecule: PPVLVFV [literature peptide from Apis mellifera pupae hydrolysate]
- IC50 (sACE; [5]): 47.8 µM

Molecule: IPP
- IC50 (sACE; [6]): 5 µM

Molecule: CC[C@H](C)[C@H](NC(=O)[C@@H](N)CCC(N)=O)C(=O)N[C@H](C(=O)N[C@@H](Cc1c[nH]c2ccccc12)C(=O)O)C(C)C [QIVW] (H-QIVW-OH)
- IC50 [2]: 140 µM

Molecule: NIKY
- IC50 (sACE; [7]): 52.2 µM

Molecule: YETGNGIK [literature peptide from Schistocerca gregaria digestion]
- IC50 (sACE): 3.25 µg/mL

Molecule: YDDGSYKPH [literature peptide from Tenebrio molitor larvae digestion]
- IC50 (sACE): 5.81 µg/mL

Molecule: ASL
- IC50 (sACE; Table S2, ref [5] of supplement, read-out: In Vitro (IC50)): 102 µM

Molecule: LAPSTIK [literature peptide from Gryllodes sigillatu digestion]
- In Vitro (IC50) (sACE; [3]): 11.14 ± 0.08 µg/mL

Molecule: QGLGY
- IC50 (sACE; [7]): 264 µM

Molecule: CC(C)[C@H](NC(=O)[C@@H](N)CC(=O)O)C(=O)N[C@@H](Cc1c[nH]c2ccccc12)C(=O)O [DVW] (H-Asp-Val-Trp-OH)
- IC50 [2]: 195 µM and 196 µM

Molecule: AIGVGAIER [literature peptide from Schistocerca gregaria digestion]
- In Vitro (IC50) (sACE; [3]): 14.43 ± 0.02 µg/mL

Molecule: CAIAW [CAIAW]
- IC50 [2]: 6.56 µM and 6.55 µM

Molecule: VPP
- IC50 (sACE; [6]): 9 µM

Molecule: PGKVHIT [literature peptide from Apis mellifera pupae hydrolysate]
- IC50 (sACE; [5]): 224 µM

Molecule: VAPEEHPV [literature peptide from Gryllodes sigillatu digestion]
- In Vitro (IC50) (sACE; [3]): 18.85 ± 0.05 µg/mL

Molecule: FFGT
- IC50 (sACE; [4]): 19.4 ± 1.7 µM

Molecule: HILG
- IC50 (sACE; [7]): 2820 µM

Molecule: GNPWM
- IC50 (sACE; Table S2, ref [10] of supplement, read-out: In Vitro (IC50)): 21.7 µM

Molecule: GKDAVIV [literature peptide from Schistocerca gregaria digestion]
- In Vitro (IC50) (sACE; [3]): 12.82 ± 0.02 µg/mL

Molecule: LLKPY
- IC50 (sACE; Table S2, ref [2] of supplement, read-out: In Vitro (IC50)): 54.9 µM

Molecule: YAN
- In Vitro (IC50) (sACE; Table S2, T. molitor larva flour, alcalase, ref [20] of supplement): 17 µg/mL
- IC50 (sACE; [7]): 172 µM

Molecule: IIAPPER [literature peptide from Gryllodes sigillatu digestion]
- IC50 (sACE): 6.93 µg/mL

Molecule: AVQPCF [AVQPCF]
- IC50 [2]: 3.69 µM
